In BindingDB's records for doi:10.1016/j.bmcl.2003.07.021 (Vicuron Pharmaceuticals, 2003):

Biological target: DNA gyrase (Escherichia coli)
Test: Inhibitory concentration against Escherichia coli by Escherichia coli DNA gyrase gel-based supercoil assay

IC50: 12.5 µM
Compound: CCOC(=O)c1cn(CC)c2cc(N3CCN(C(=O)c4ccc(N5C[C@H](CNC(C)=O)OC5=O)cc4F)CC3)c(F)cc2c1=O [7-(4-{4-[(S)-5-(Acetylamino-methyl)-2-oxo-oxazolidin-3-yl]-2-fluoro-benzoyl}-piperazin-1-yl)-1-ethyl-6-fluoro-4-oxo-1,4-dihydro-quinoline-3-carboxylic acid ethyl ester]
